According to patent publication US10358436B2, “Kinase inhibitors and method of treating cancer” (University Health Network, priority 2010, dated 2019):
Where a name gives a salt, the structure may show the parent alone.

Each compound was assayed against Aurora A (Homo sapiens (Human), UniProt O14965) (assay: Aurora A inhibition assay (Z-Lyte)).
Type: biochemical

Aurora A, sequence (O14965 whole entry): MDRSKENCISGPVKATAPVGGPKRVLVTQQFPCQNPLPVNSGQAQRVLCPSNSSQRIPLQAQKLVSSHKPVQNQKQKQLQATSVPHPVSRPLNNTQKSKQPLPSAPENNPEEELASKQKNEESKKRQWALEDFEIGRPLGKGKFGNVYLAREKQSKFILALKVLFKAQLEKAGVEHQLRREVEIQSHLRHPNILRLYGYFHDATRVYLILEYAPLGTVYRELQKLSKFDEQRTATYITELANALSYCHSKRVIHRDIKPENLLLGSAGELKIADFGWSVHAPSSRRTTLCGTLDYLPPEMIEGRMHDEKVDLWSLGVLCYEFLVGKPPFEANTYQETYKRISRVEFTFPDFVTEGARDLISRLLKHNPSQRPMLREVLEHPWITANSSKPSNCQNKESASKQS

| SMILES | inhibition at 1 µM [%] | IC50 [nM] |
| --- | --- | --- |
| CN1CCN(c2ccc(-c3n[nH]c4cc([C@@H]5C[C@@]56C(=O)Nc5ccc(F)cc56)ccc34)cn2)CC1 (relative stereo) [Example A210, 1R*,2S*1-5′-fluoro-2-(3-(6-(4-methylpiperazine-1-yl)pyridine-3-yl)-1H-indazol-6-yl)-spiro[cyclopropane-1,3′-indolin]-2′-one] | > 50 |  |
| CN(C)Cc1ccc(/C=C/c2n[nH]c3cc([C@@H]4C[C@@]45C(=O)Nc4ccc(OC(F)F)cc45)ccc23)cc1 (relative stereo) [Example A214, (1R*,2S*)-(E)-5′-difluoromethoxy-2-(3-(4-((dimethylamino)methyl)styryl)-1H-indazol-6-yl)spiro[cyclopropane-1,3′-indolin]-2′-one 2,2,2-trifluoroacetate] | > 50 |  |
| COc1ccc2c(c1)[C@]1(C[C@H]1c1ccc3c(/C=C/c4cc(F)c(CN5CCOCC5)c(F)c4)n[nH]c3c1)C(=O)N2 (relative stereo) [Example A217, (1R*,2S*)-(E)-2-(3-(3,5-difluoro-4-(morpholinomethyl)styryl-1H-indazol-6-yl)-5′-methoxyspiro[cyclopropane-1,3′-indolin]-2′-one 2,2,2-trifluoroacetate] | > 50 |  |
| O=C1Nc2ccccc2[C@]12C[C@H]2c1ccc2c(/C=C/c3cccnc3)n[nH]c2c1 [Example A29, (1R,2S)-2-(3-((E)-2-(pyridin-3-yl)vinyl)-1H-indazol-6-yl)spiro[cyclopropane-1,3′-indolin]-2′-one] | > 50 |  |
| O=C1Nc2ccccc2[C@@]12C[C@@H]2c1ccc2c(/C=C/c3cccnc3)n[nH]c2c1 [Example A30, (1S,2R)-2-(3-((E)-2-(pyridin-3-yl)vinyl)-1H-indazol-6-yl)spiro[cyclopropane-1,3′-indolin]-2′-one] | > 50 |  |
| COc1ccc2c(c1)[C@@]1(C[C@@H]1c1ccc3c(-c4ccc(N5CCNCC5)cc4)n[nH]c3c1)C(=O)N2 [Example A50, (1S,2R)-5′-methoxy-2-(3-(4-(piperazin-1-yl)phenyl)-1H-indazol-6-yl)spiro[cyclopropane-1,3′-indolin]-2′-one 2,2,2-trifluoroacetate] | < 50 |  |
| O=C1Nc2ccccc2[C@]12C[C@H]2c1ccc2c(/C=C/c3ccc(CN4CCCCC4)cc3)n[nH]c2c1 [Example A58, (1R,2S)-(E)-2-(3-(4-(piperidin-1-ylmethyl)styryl)-1H-indazol-6-yl)spiro[cyclopropane-1,3′-indolin]-2′-one 2,2,2-trifluoroacetate] | > 50 |  |
| COc1ccc2c(c1)[C@]1(C[C@H]1c1ccc3c(/C=C/c4ccc(CN5CCCCC5)cc4)n[nH]c3c1)C(=O)N2 [Example A59, (1R,2S)-(E)-5′-methoxy-2-(3-(4-(piperidin-1-ylmethyl)styryl)-1H-indazol-6-yl)spiro[cyclopropane-1,3′-indolin]-2′-one 2,2,2-trifluoroacetate salt] | > 50 |  |
| O=C1Nc2ccccc2[C@]12C[C@H]2c1ccc2c(/C=C/c3ccc(CN4CCCC4)cc3)n[nH]c2c1 [Example A61, (1R,2S)-(E)-2-(3-(4-(pyrolidin-1-ylmethyl)styryl)-1H-indazol-6-yl)spiro[cyclopropane-1,3′-indolin]-2′-one 2,2,2-trifluoroacetate] | > 50 |  |
| COc1ccc2c(c1)[C@]1(C[C@H]1c1ccc3c(/C=C/c4ccc5c(c4)CNCC5)n[nH]c3c1)C(=O)N2 [Example A66, (1R,2S)-5′-methoxy-2-(3-((E)-2-(1,2,3,4-tetrahydroisoquinolin-7-yl)vinyl)-1H-indazol-6-yl)spiro[cyclopropane-1,3′-indolin]-2′-one 2,2,2-trifluoroacetate salt] | > 50 |  |
| COc1ccc2c(c1)[C@]1(C[C@H]1c1ccc3c(-c4ccc(OCCN(C)C)cc4)n[nH]c3c1)C(=O)N2 [Example A69, (1R,2S)-2-(3-(4-(2-(dimethylamino)ethoxy)phenyl)-1H-indazol-6-yl)-5′-methoxyspiro[cyclopropane-1,3′-indolin]-2′-one 2,2,2-trifluoroacetate salt] | < 50 |  |
| COc1ccc2c(c1)[C@]1(C[C@H]1c1ccc3c(-c4ccc5c(c4)CN(C)CC5)n[nH]c3c1)C(=O)N2 [Example A70, (1R,2S)-5′-methoxy-2-(3-(2-methyl-1,2,3,4-tetrahydroisoquinolin-7-yl)-1H-indazol-6-yl)spiro[cyclopropane-1,3′-indolin]-2′-one 2,2,2-trifluoroacetate salt] | < 50 |  |

More lines, now with the values ahead:

| inhibition at 1 µM [%] | IC50 [nM] | SMILES |
| --- | --- | --- |
| < 50 |  | CN1CCN(c2ccc(-c3n[nH]c4cc([C@@H]5C[C@@]56C(=O)Nc5ccc(OC(F)F)cc56)ccc34)cn2)CC1 (relative stereo) [Example A209, 1R*,2S*1-5′-(difluoromethoxy)-2-(3-(6-(4-methylpiperazine-1-yl)pyridine-3-yl)-1H-indazol-6-yl) spiro[cyclopropane-1,3′-indolin]-2′-one 2,2,2-trifluoroacetate] |
| > 50 |  | COc1ccc2c(c1)[C@]1(C[C@H]1c1ccc3c(/C=C/c4ccc(N5CCOCC5)nc4)n[nH]c3c1)C(=O)N2 (relative stereo) [Example A213, (1R*,2S*)-5′-methoxy-2-(3-((E)-2-(6-morpholinopyridin-3-yl)vinyl)-1H-indazol-6-yl)spiro[cyclopropane-1,3′-indolin]-2′-one 2,2,2-trifluoroacetate] |
|  | < 100 | COc1ccc2c(c1)[C@]1(C[C@H]1c1ccc3c(/C=C/c4cc(F)c(CN(C)C)c(F)c4)n[nH]c3c1)C(=O)N2 (relative stereo) [Example A215, (1R*,2S*)-(E)-2-(3-(4-((dimethylamino)methyl)-3,5-difluorostyryl)-1H-indazol-6-yl)-5′-methoxyspiro[cyclopropane-1,3′-indolin]-2′-one 2,2,2-trifluoro acetate] |
| > 50 |  | O=C1Nc2ccc(F)cc2[C@]12C[C@H]2c1ccc2c(/C=C/c3ccc(CN4CCOCC4)cc3)n[nH]c2c1 (relative stereo) [Example A219, 1R*,2S*)-(E)-5′-fluoro-2-(3-(4-(morpholinomethyl)styryl-1H-indazol-6-yl)spiro[cyclopropane-1,3′-indolin]-2′-one 2,2,2-trifluoroacetate] |
| < 50 |  | COc1ccc2c(c1)C1(CC1c1ccc3c(I)n[nH]c3c1)C(=O)N2 (single isomer, unassigned) [Example A6, (1R*,2S*)- and (1R*,2R*)-2-(3-iodo-1H-indazol-6-yl)-5′-methoxyspiro-[cyclopropane-1,3′-indolin]-2′-one] |
| > 50 |  | COc1ccc2c(c1)[C@]1(CC1c1ccc3c(/C=C/c4ccc(N5CCN(C)CC5)nc4)n[nH]c3c1)C(=O)N2 (single isomer, unassigned) [Example A31, (1R*,2S*)-5′-methoxy-2-(3-((E)-2-(6-(4-methylpiperazin-1-yl)pyridin-3-yl)vinyl)-1H-indazol-6-yl)spiro[cyclopropane-1,3′-indolin]-2′-one] |
| < 50 |  | COc1ccc2c(c1)[C@@]1(C[C@@H]1c1ccc3c(-c4ccc(N5CCN(C)CC5)nc4)n[nH]c3c1)C(=O)N2 (stereo in doubt) [Example A16, (1S,2R)-5′-methoxy-2-(3-(6-(4-methylpiperazin-1-yl)pyridin-3-yl)-1H-indazol-6-yl)spiro[cyclopropane-1,3′-indolin]-2′-one] |
| < 50 |  | COc1ccc2c(c1)[C@]1(C[C@H]1c1ccc3c(I)n[nH]c3c1)C(=O)N2 [Example A7, (1R,2S)-2-(3-iodo-1H-indazol-6-yl)-5′-methoxyspiro[cyclopropane-1,3′-indolin]-2′-one] |
| < 50 |  | O=C1Nc2ccccc2[C@]12C[C@H]2c1ccc2c(I)n[nH]c2c1 [Example A10, (1R,2S)-2-(3-iodo-1H-indazol-6-yl)spiro[cyclopropane-1,3′-indolin]-2′-one] |
| < 50 |  | COc1ccc2c(c1)[C@@]1(C[C@@H]1c1ccc3c(-c4ccc(N5CCN(C)CC5)nc4)n[nH]c3c1)C(=O)N2 [Example A15, (1S,2R)-5′-methoxy-2-(3-(6-(4-methylpiperazin-1-yl)pyridin-3-yl)-1H-indazol-6-yl)spiro[cyclopropane-1,3′-indolin]-2′-one] |
| > 50 |  | COc1ccc2c(c1)[C@]1(C[C@H]1c1ccc3c(/C=C/c4ccc5c(c4)CN(C)CC5)n[nH]c3c1)C(=O)N2 [Example A64, (1R,2S)-5′-methoxy-2-(3-((E)-2-(2-methyl-1,2,3,4-tetrahydroisoquinolin-7-yl)vinyl)-1H-indazol-6-yl)spiro[cyclopropane-1,3′-indolin]-2′-one 2,2,2-trifluoroacetate salt] |
| > 50 |  | CN1CCc2ccc(/C=C/c3n[nH]c4cc([C@@H]5C[C@@]56C(=O)Nc5ccccc56)ccc34)cc2C1 [Example A65, (1R,2S)-2-(3-((E)-2-(2-methyl-1,2,3,4-tetrahydroisoquinolin-7-yl)vinyl)-1H-indazol-6-yl)spiro[cyclopropane-1,3′-indolin]-2′-one 2,2,2-trifluoroacetate salt] |
| < 50 |  | COc1ccc2c(c1)[C@]1(C[C@H]1c1ccc3c(-c4ccc(OCCN5CCCCC5)cc4)n[nH]c3c1)C(=O)N2 [Example A67, (1R,2S)-5′-methoxy-2-(3-(4-(2-(piperidin-1-yl)ethoxy)phenyl)-1H-indazol-6-yl)spiro[cyclopropane-1,3′-indolin]-2′-one 2,2,2-trifluoroacetate salt] |
| < 50 |  | COc1ccc2c(c1)[C@]1(C[C@H]1c1ccc3c(-c4ccc(OCCN5CCOCC5)cc4)n[nH]c3c1)C(=O)N2 [Example A68, (1R,2S)-5′-methoxy-2-(3-(4-(2-morpholinoethoxy)phenyl)-1H-indazol-6-yl)spiro[cyclopropane-1,3′-indolin]-2′-one 2,2,2-trifluoroacetate salt] |
| < 50 |  | COc1ccc2c(c1)[C@]1(C[C@H]1c1ccc3c(-c4ccc5c(c4)CNCC5)n[nH]c3c1)C(=O)N2 [Example A71, (1R,2S)-5′-methoxy-2-(3-(1,2,3,4-tetrahydroisoquinolin-7-yl)-1H-indazol-6-yl)spiro[cyclopropane-1,3′-indolin]-2′-one 2,2,2-trifluoroacetate salt] |
